Experimental findings from ChEMBL document CHEMBL1138574, “Regioselective synthesis and stereochemical structure of anti-tumor active dispiro[3H-indole-3,2'-pyrrolidine-3',3''-piperidine]-2(1H),4''-diones” (2009) are described below.

Holding throughout (type): functional
What all share (details): route intraperitoneal

Experiment [1] has as its system Rattus norvegicus. In words: Antiinflammatory activity in Wister albino rat assessed as inhibition of carrageenan-induced paw oedema at 50 mg/kg, ip administered 1 hr before carrageenan challenge measured after 1 hr of induction of inflammation relative to control. On the technique in general: The carrageenan paw model is a standard test of acute inflammation.
In experiment [2] the test system is Rattus norvegicus. In words: Antiinflammatory activity in Wister albino rat assessed as inhibition of carrageenan-induced paw oedema at 50 mg/kg, ip administered 1 hr before carrageenan challenge measured after 2 hrs of induction of inflammation relative to control.
Experiment [3] relates to Rattus norvegicus. In words: Antiinflammatory activity in Wister albino rat assessed as inhibition of carrageenan-induced paw oedema at 50 mg/kg, ip administered 1 hr before carrageenan challenge measured after 3 hrs of induction of inflammation relative to control.
Experiment [4] has as its system Rattus norvegicus. In words: Antiinflammatory activity in Wister albino rat assessed as inhibition of carrageenan-induced paw oedema at 50 mg/kg, ip administered 1 hr before carrageenan challenge measured after 4 hrs of induction of inflammation relative to control.
In experiment [5] the test system is Rattus norvegicus. Put plainly: Antiinflammatory activity in Wister albino rat assessed as inhibition of carrageenan-induced paw oedema at 50 mg/kg, ip administered 1 hr before carrageenan challenge measured after 24 hrs of induction of inflammation relative to control.
Experiment [6] has as its system Rattus norvegicus. In words: Antiinflammatory activity in Wister albino rat assessed as inhibition of carrageenan-induced paw oedema at 50 mg/kg, ip administered 1 hr before carrageenan challenge measured after 4 hrs of induction of inflammation relative to indomethacin.
Experiment [7] deals with Rattus norvegicus. Put plainly: Antiinflammatory activity in Wister albino rat assessed as inhibition of carrageenan-induced paw oedema at 10 mg/kg, ip administered 1 hr before carrageenan challenge measured after 1 hr of induction of inflammation relative to control.
For experiment [8], the system named is Rattus norvegicus. In words: Antiinflammatory activity in Wister albino rat assessed as inhibition of carrageenan-induced paw oedema at 10 mg/kg, ip administered 1 hr before carrageenan challenge measured after 2 hrs of induction of inflammation relative to control.
The subject of experiment [9] is Rattus norvegicus. In words: Antiinflammatory activity in Wister albino rat assessed as inhibition of carrageenan-induced paw oedema at 10 mg/kg, ip administered 1 hr before carrageenan challenge measured after 3 hrs of induction of inflammation relative to control.
The subject of experiment [10] is Rattus norvegicus. In words: Antiinflammatory activity in Wister albino rat assessed as inhibition of carrageenan-induced paw oedema at 10 mg/kg, ip administered 1 hr before carrageenan challenge measured after 4 hrs of induction of inflammation relative to control.
The subject of experiment [11] is Rattus norvegicus. Put plainly: Antiinflammatory activity in Wister albino rat assessed as inhibition of carrageenan-induced paw oedema at 10 mg/kg, ip administered 1 hr before carrageenan challenge measured after 24 hrs of induction of inflammation relative to control.

Molecules are shown by their SMILES.

With `CN1C/C(=C\c2ccccc2)C(=O)[C@]2(C1)[C@@H](c1ccccc1)CN(C)[C@@]21C(=O)N(C)c2ccccc21`, the inhibition in vivo – broadly, the change of the read-out against control, counted positive when it falls – at 50 mg/kg came out at 68% in the experiment on Rattus norvegicus [1]; 70.7% in the experiment with Rattus norvegicus [2]; 75.6% in the experiment on Rattus norvegicus [3]; 68.8% with Rattus norvegicus [4]; 26.5% in the experiment with Rattus norvegicus [5]; 122% in the experiment on Rattus norvegicus [6].

Regarding `Cc1ccc(/C=C2\CN(C)C[C@@]3(C2=O)[C@@H](c2ccc(C)cc2)CN(C)[C@@]32C(=O)Nc3ccccc32)cc1`, the inhibition in vivo at 50 mg/kg is 69.2% with Rattus norvegicus [1]; 52.1% in the experiment with Rattus norvegicus [2]; 50.9% in the experiment on Rattus norvegicus [3]; 50.7% with Rattus norvegicus [4]; 22.1% with Rattus norvegicus [5]; 89.7% in the experiment with Rattus norvegicus [6].

As to `CN1C/C(=C\c2ccc(Br)cc2)C(=O)[C@]2(C1)[C@@H](c1ccc(Br)cc1)CN(C)[C@@]21C(=O)Nc2ccccc21`, the inhibition in vivo at 50 mg/kg turned out to be 77.7% in the experiment with Rattus norvegicus [1]; 69.3% in the experiment on Rattus norvegicus [2]; 65.2% in the experiment with Rattus norvegicus [3]; 66.8% in the experiment on Rattus norvegicus [4]; 82.7% with Rattus norvegicus [5]; 118% in the experiment with Rattus norvegicus [6].

In the case of `CN1C/C(=C\c2ccc(F)cc2)C(=O)[C@]2(C1)[C@@H](c1ccc(F)cc1)CN(C)[C@@]21C(=O)Nc2ccccc21`, the inhibition in vivo at 50 mg/kg in the experiment with Rattus norvegicus [1] was 80.1%; with Rattus norvegicus [2], 78.4%; in the experiment on Rattus norvegicus [3], 70.9%; in the experiment with Rattus norvegicus [4], 61.5%; in the experiment with Rattus norvegicus [5], 57%; in the experiment with Rattus norvegicus [6], 109%.

`CN1C/C(=C\c2ccc(-c3cccs3)cc2)C(=O)[C@]2(C1)[C@@H](c1ccc(-c3cccs3)cc1)CN(C)[C@@]21C(=O)Nc2ccccc21`: the inhibition in vivo at 50 mg/kg in the experiment on Rattus norvegicus [1] was determined as 68%; in the experiment with Rattus norvegicus [2], 70.7%; in the experiment with Rattus norvegicus [3] it was 74.8%; with Rattus norvegicus [4], 71.4%; with Rattus norvegicus [5], 79.8%; in the experiment on Rattus norvegicus [6], 126%.

With `COc1ccc2c(c1)c(CC(=O)O)c(C)n2C(=O)c1ccc(Cl)cc1` [INDOMETHACIN], the inhibition in vivo at 10 mg/kg with Rattus norvegicus [7] is 72.9%; in the experiment with Rattus norvegicus [8] it was 70.7%; with Rattus norvegicus [9], 61.3%; in the experiment on Rattus norvegicus [10], 56.5%; in the experiment on Rattus norvegicus [11], 57%.

Turning to `CN1C/C(=C\c2ccc(F)cc2)C(=O)[C@]2(C1)[C@@H](c1ccc(F)cc1)CN(C)[C@@]21C(=O)N(C)c2ccccc21`, the inhibition in vivo at 50 mg/kg was determined as 75.8% with Rattus norvegicus [1]; 62% in the experiment with Rattus norvegicus [2]; 55.8% with Rattus norvegicus [3]; 47.2% in the experiment with Rattus norvegicus [4]; 27.2% with Rattus norvegicus [5]; 83.5% in the experiment with Rattus norvegicus [6].

With `Cc1ccc(/C=C2\CN(C)C[C@@]3(C2=O)[C@@H](c2ccc(C)cc2)CN(C)[C@@]32C(=O)N(C)c3ccccc32)cc1`, the inhibition in vivo at 50 mg/kg with Rattus norvegicus [1] turned out to be 53.5%; with Rattus norvegicus [2] it was 62%; in the experiment on Rattus norvegicus [3], 65%; with Rattus norvegicus [4] it was 68.8%; with Rattus norvegicus [5], 57%; with Rattus norvegicus [6], 122%.

On to `CN1C/C(=C\c2ccccc2)C(=O)[C@]2(C1)[C@@H](c1ccccc1)CN(C)[C@@]21C(=O)Nc2ccccc21`, for which the inhibition in vivo at 50 mg/kg in the experiment with Rattus norvegicus [1] worked out at 77%; in the experiment on Rattus norvegicus [2] it was 73.3%; in the experiment on Rattus norvegicus [3], 71.4%; with Rattus norvegicus [4] it was 70.9%; in the experiment on Rattus norvegicus [5] it was 65.1%; with Rattus norvegicus [6] it was 126%.

`CN1C/C(=C\c2ccc(Br)cc2)C(=O)[C@]2(C1)[C@@H](c1ccc(Br)cc1)CN(C)[C@@]21C(=O)N(C)c2ccccc21`: the inhibition in vivo at 50 mg/kg came to 53.5% in the experiment with Rattus norvegicus [1]; 49.1% in the experiment on Rattus norvegicus [2]; 47.6% in the experiment with Rattus norvegicus [3]; 46.8% with Rattus norvegicus [4]; 83.5% with Rattus norvegicus [5]; 82.8% in the experiment on Rattus norvegicus [6].
